# Test results taken from US20250108038A1 (priority 2023, published 2025).
# How the values were obtained:
# CYP2C19 = CYP2C19 (Homo sapiens, UniProt P33261); assay: in vitro; details: both, pH 7.4
# Wistar rats = assay: Five Choice Serial Reaction Time Task, vITI version, repeated administration; assay type: in vivo, Wistar rat; design: Latency (Correct) / Latency (Incorrect): unit not given here; details: for Latency (Correct) / Latency (Incorrect) / Magazine Head Entries / Omissions / Reward Latency / Trials Completed: vITI, mean ± SEM
# From the text: The behavioral tasks utilized were three versions of the rat Five Choice Serial Reaction Time Task (5C-SRTT), the standard version of the task (STD) with a fixed stimulus duration and a fixed intertrial interval, the variable stimulus duration (vSD) and the variable intertrial interval (vITI) version. The principal readout parameters in each task were the % Hit and the % correct choices (measures of sustained attention) and three measures of inhibitory response control (premature, perseverative, and timeout responses), although a number of additional outcome measures were obtained (see under Methods and Results below).
# Twenty-four adult (approx. 10 months old) male Wistar rats (Envigo, Inc, Indianapolis, IN) were used in the study. […] Subjects were double housed in polycarbonate cages (45×30×18 cm) with corncob bedding in a vivarium of constant temperature (21-23° C.) and humidity (40-50%). […] All behavioral testing was performed during the light portion (9 a.m.-5 p.m.) of the light/dark cycle (Monday thru Friday). Animals were cared for in accordance with the Guide for the Care and Use of Laboratory Animals (U.S. National Institutes of Health) and the experimental protocols were approved by the Institutional Animal Care and Use Committee at Augusta University (Protocol #2010-0044).
# The 5C-SRTT procedure (reviewed, Robbins, 2002. Psychopharmacology (Berl); 163(3-4):362-80) was conducted as we have described previously (Terry et al., 2014, Neurotoxicology and Teratology 44:18-29, 2014; Callahan et al., 2020, Neuropharmacology. August 15; 173:107994). […] Animals were trained in eight automated 5C-SRTT operant chambers (Med Associates, St. Albans, VT, USA), controlled by MedPC software (Med Associates). Briefly, each operant chamber was equipped with 5 apertures containing a photocell beam to detect nose pokes and a lamp (2.8 W) that could be illuminated randomly at varying durations. Food pellets (45 mg chow pellet, BioServ, Frenchtown, NJ, USA) were delivered automatically to a magazine, located on the opposite wall to the nose pokes, that was also equipped with a light that turned on to indicate that a pellet had been dispensed. The house-light remained on for the entire session unless an error or omission occurred. Training sessions began with the delivery of a food reward and retrieval triggered the first trial. […] Sessions ended when 40 minutes had lapsed or 100 trials had been completed.
# For this study, subjects were re-trained 5 days per week until they re-established a stable performance criteria with a fixed (1.0 sec) stimulus duration and a fixed ITI (5 sec) of 70-75% accuracy, <20% omissions and completion of all 100 trials for 5 consecutive days. Upon meeting these performance criteria animals were trained for one additional week and two groups of subjects (N=12) were assembled and balanced according to their performance accuracy, specifically the % Hit evaluation, which takes into account correct responses as well as all incorrect responses including the number of omissions. […] The vSD version of the task increases the attentional load while the vITI increases impulsivity-like behavior. The following outcome measures and behavioral domains were assessed: % Hit and % correct=sustained attention; omissions=attention/motivation; premature responses=impulsivity; perseverative responses=compulsivity; timeout responses=cognitive inflexibility; magazine head entries=appetitive motivation and compulsivity-like behavior; response latencies=information processing speed and/or motivation. For the STD version of the task, the stimulus duration (SD) was fixed at 1.0 sec and the ITI was fixed at 5 sec. In the vSD version of the task the following stimulus durations were presented in a pseudorandom manner: 0.3, 0.6, and 0.9 sec. In the vITI version, 2.5, 5.0, and 10.0 sec ITIs were employed in a pseudorandom manner. […]
# [1] = repeated 0.1 and 0.3 mg/kg IP, 10 sec ITI
# [2] = Group 1, 0.1 mg/kg, Drug Exp period
# [3] = Group 1, 0.1 mg/kg, Post-Drug Exp (vehicle washout) period
# [4] = Group 2, 0.3 mg/kg, Drug Exp period
# [5] = Group 2, 0.3 mg/kg, Post-Drug Exp (vehicle washout) period
# CYP2C19, sequence (P33261 whole entry): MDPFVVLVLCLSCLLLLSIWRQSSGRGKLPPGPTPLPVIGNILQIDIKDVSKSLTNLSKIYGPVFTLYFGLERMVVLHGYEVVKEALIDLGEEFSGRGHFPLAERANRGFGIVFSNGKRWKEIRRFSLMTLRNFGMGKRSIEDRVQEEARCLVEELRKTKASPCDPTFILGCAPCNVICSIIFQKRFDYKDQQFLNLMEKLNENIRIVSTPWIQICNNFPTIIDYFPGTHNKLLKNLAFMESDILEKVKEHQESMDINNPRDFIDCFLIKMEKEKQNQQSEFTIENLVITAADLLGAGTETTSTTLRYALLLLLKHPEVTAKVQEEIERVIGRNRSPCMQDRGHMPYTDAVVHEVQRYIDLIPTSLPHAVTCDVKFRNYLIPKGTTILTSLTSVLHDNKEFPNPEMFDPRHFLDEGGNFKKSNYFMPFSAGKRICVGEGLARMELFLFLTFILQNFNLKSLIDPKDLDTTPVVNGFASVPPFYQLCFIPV
structure (smiles),measurement,setting,value
"OC1(c2ccc(Cl)cc2)c2ccccc2C2=NCCN21 (stereo not shown) [Compound A, 5-(4-chlorophenyl)-2,3-dihydroimidazo[1,2-b]isoindol-5-ol, reference compound]",inhibition at 10 µM,CYP2C19,16.5%
Clc1ccc(C2(OCC3OCCO3)c3ccccc3C3=NCCN32)cc1 (stereo not shown) [Compound I-19],% Hit,Wistar rats; repeated 0.1 and 0.3 mg/kg IP,modest decrease in accuracy that was limited to the 2.5 sec ITI
same,premature responses,Wistar rats; [1],reduced the number of premature responses compared to both the pre- and post-drug conditions at the 10 sec ITI
same,timeout responses,Wistar rats; [1],reduced the number of timeout responses compared to both the pre- and post-drug conditions at the 10 sec ITI
same,Latency (Correct),Wistar rats; [2],0.99
same,Latency (Incorrect),Wistar rats; [2],2.27 ± 0.12
same,Magazine Head Entries,Wistar rats; [2],236.13
same,Omissions,Wistar rats; [2],17.04
same,Reward Latency,Wistar rats; [2],2.77
same,Trials Completed,Wistar rats; [2],91.83 ± 4.15
same,Latency (Correct),Wistar rats; [3],0.90 ± 0.03
same,Latency (Incorrect),Wistar rats; [3],2.03 ± 0.09
same,Magazine Head Entries,Wistar rats; [3],318.71 ± 34.88
same,Omissions,Wistar rats; [3],9.63 ± 1.15
same,Reward Latency,Wistar rats; [3],2.13
same,Trials Completed,Wistar rats; [3],85.62 ± 4.17
same,Latency (Correct),Wistar rats; [4],0.97
same,Latency (Incorrect),Wistar rats; [4],2.26
same,Magazine Head Entries,Wistar rats; [4],268.17
same,Omissions,Wistar rats; [4],13.42
same,Reward Latency,Wistar rats; [4],3.21
same,Trials Completed,Wistar rats; [4],87.50
same,Latency (Correct),Wistar rats; [5],0.81 ± 0.03
same,Latency (Incorrect),Wistar rats; [5],1.82 ± 0.10
same,Magazine Head Entries,Wistar rats; [5],415.04 ± 70.50
same,Omissions,Wistar rats; [5],6.75 ± 1.44
same,Reward Latency,Wistar rats; [5],2.06
same,Trials Completed,Wistar rats; [5],78.46 ± 4.47
